Experimental data published in US5155041A, “Culture of Bacillus subtilis” (Korea Research Institute of Chemical Technology, priority 1990, dated 1992).
In brackets after ≈: the same amount, converted by molar mass. Where two headings read alike, the source gives them in different places.

How the values were obtained:
[1] = tested on: Rhizopus sp.; assay: Minimum inhibitory concentration, agar dilution; type: cell-based
[2] = tested on: Asperillus fumigatus ATCC 164264; assay: Minimum inhibitory concentration, agar dilution; type: cell-based
[3] = tested on: Trichophyton mentagrophytes ATCC 9533; assay: Minimum inhibitory concentration, agar dilution; type: cell-based
[4] = tested on: Glomerella glycine; assay: Minimum inhibitory concentration, agar dilution; type: cell-based
[5] = tested on: Trichophyton ruburum; assay: Minimum inhibitory concentration, agar dilution; type: cell-based
[6] = tested on: Fusarium roseum; assay: microbe, parasite or virus in culture; type: cell-based
[7] = tested on: Phytophthora capsici; assay: Minimum inhibitory concentration, agar dilution; type: cell-based
[8] = tested on: Sporothrix schenkii ATCC 10212; assay: Minimum inhibitory concentration, agar dilution; type: cell-based
[9] = tested on: Cladosporium carrionii ATCC 1624; assay: Minimum inhibitory concentration, agar dilution; type: cell-based
[10] = tested on: mice; details: mouse, in vivo, ip; cited from earlier work
[11] = tested on: Coccidioides immitis ATCC 34020; assay: microbe, parasite or virus in culture; type: cell-based
[12] = tested on: Phytophthora parasitica; assay: Minimum inhibitory concentration, agar dilution; type: cell-based
[13] = tested on: Cercospora kikuchi; assay: Minimum inhibitory concentration, agar dilution; type: cell-based
[14] = tested on: Pyricularia oryzae; assay: microbe, parasite or virus in culture; type: cell-based
[15] = tested on: Fusarium oxysporum; assay: Minimum inhibitory concentration, agar dilution
[16] = tested on: Botrytis cinerea; assay: Minimum inhibitory concentration, agar dilution
[17] = tested on: Microsporum gypseum; assay: Minimum inhibitory concentration, agar dilution; type: cell-based
[18] = tested on: Microsporum canis ATCC 11622; assay: Minimum inhibitory concentration, agar dilution; type: cell-based
[19] = tested on: Epidermopyton floccosum ATCC 38486; assay: Minimum inhibitory concentration, agar dilution; type: cell-based
[20] = tested on: Rhizoctonia solani; assay: Minimum inhibitory concentration, agar dilution; type: cell-based
[21] = Phytophthora capsici, read-out: MIC
[22] = Rhizoctonia solani, read-out: MIC
[23] = Asperillus fumigatus ATCC 164264, read-out: MIC
[24] = ATCC9533, Trichophyton mentagrophytes ATCC 9533, read-out: MIC
[25] = Glomerella glycine, read-out: MIC
[26] = Trichophyton ruburum, read-out: MIC
[27] = ATCC10212, Sporothrix schenkii ATCC 10212, read-out: MIC
[28] = Cladophialophora carrionii, ATCC1624, Cladosporium carrionii ATCC 1624, read-out: MIC
[29] = Phytophthora nicotianae, Phytophthora parasitica, read-out: MIC
[30] = Cercospora kikuchi, read-out: MIC
[31] = Epidermopyton floccosum ATCC 38486, read-out: MIC
[32] = Nannizzia gypsea, Microsporum gypseum, read-out: MIC
[33] = ATCC11622, Microsporum canis ATCC 11622, read-out: MIC

SMILES | MIC [2] | MIC [4] | MIC ([6]; Fusarium sambucinum) | LD50 [10] | MIC ([11]; ATCC34020) | MIC [14] | MIC ([17]; Nannizzia gypsea) | MIC ([18]; Microsporum canis, ATCC11622) | MIC [7, 21] | MIC [20, 22] | MIC ([1]; Rhizopus sp., read-out: MIC) | MIC [2, 23] | MIC [3, 24] | MIC [4, 25] | MIC [5, 26] | MIC [8, 27] | MIC [9, 28] | MIC [12, 29] | MIC [13, 30] | MIC [19, 31] | further results
C[C@@H]1[C@H](O)[C@@H](C)/C=C/C=C/C=C/C=C/C=C/C=C/C=C/[C@H](O[C@@H]2O[C@H](C)[C@@H](O)[C@H](N)[C@@H]2O)C[C@@H]2O[C@](O)(C[C@@H](O)C[C@@H](O)[C@H](O)CC[C@@H](O)C[C@@H](O)CC(=O)O[C@H]1C)C[C@H](O)[C@H]2C(=O)O [amphotericin B] | 1.5 µg/mL (≈ 1.62 µM) | 25 µg/mL (≈ 27.1 µM) | 6 µg/mL (≈ 6.49 µM) | 88 mg/kg | 0.4 µg/mL (≈ 0.433 µM) | 0.2 µg/mL (≈ 0.216 µM) | 0.8 µg/mL (≈ 0.866 µM) | 1.5 µg/mL (≈ 1.62 µM) |  |  |  |  |  |  |  |  |  |  |  |  | MIC ([1]; Rhizopus): 100 µg/mL (≈ 108 µM); MIC ([3]; Trichophyton mentagrophytes, ATCC9533): 0.8 µg/mL (≈ 0.866 µM); MIC ([5]; Trichophyton): 0.8 µg/mL (≈ 0.866 µM); MIC ([7]; Phytophthora capsici): 25 µg/mL (≈ 27.1 µM); MIC ([8]; Sporothrix, ATCC10212): 50 µg/mL (≈ 54.1 µM); MIC ([9]; Cladophialophora carrionii, ATCC1624): 50 µg/mL (≈ 54.1 µM); MIC ([12]; Phytophthora nicotianae): 50 µg/mL (≈ 54.1 µM); MIC ([13]; Cercospora): 100 µg/mL (≈ 108 µM); MIC ([15]; Fusarium oxysporum): 50 µg/mL (≈ 54.1 µM); MIC ([16]; Botrytis cinerea): 3 µg/mL (≈ 3.25 µM); MIC [19]: 0.4 µg/mL (≈ 0.433 µM); MIC ([20]; Rhizoctonia solani): 3 µg/mL (≈ 3.25 µM)
C[C@@H]1C[C@@H]([C@H](O)CC2CC(=O)NC(=O)C2)C(=O)[C@@H](C)C1 [cycloheximide] |  |  | 25 µg/mL (≈ 88.9 µM) |  |  |  |  |  | 0.8 µg/mL (≈ 2.84 µM) | 12 µg/mL (≈ 42.7 µM) |  |  |  |  |  |  |  |  |  |  | MIC ([1]; Rhizopus, read-out: MIC): > 100 µg/mL; MIC ([2]; read-out: MIC): 50 µg/mL (≈ 178 µM); MIC ([3]; Trichophyton mentagrophytes, ATCC9533, read-out: MIC): > 100 µg/mL; MIC ([4]; read-out: MIC): 25 µg/mL (≈ 88.9 µM); MIC ([5]; Trichophyton, read-out: MIC): > 100 µg/mL; MIC ([8]; Sporothrix, ATCC10212, read-out: MIC): > 100 µg/mL; MIC ([9]; Cladophialophora carrionii, ATCC1624, read-out: MIC): > 100 µg/mL; MIC ([11]; ATCC34020, read-out: MIC): > 100 µg/mL; MIC ([12]; Phytophthora nicotianae, read-out: MIC): 1.5 µg/mL (≈ 5.33 µM); MIC ([13]; Cercospora, read-out: MIC): 100 µg/mL (≈ 355 µM); MIC ([14]; read-out: MIC): 3 µg/mL (≈ 10.7 µM); MIC ([17]; Nannizzia gypsea, read-out: MIC): > 100 µg/mL; MIC ([18]; Microsporum canis, ATCC11622, read-out: MIC): > 100 µg/mL; MIC ([19]; read-out: MIC): > 100 µg/mL
COC1=CC(=O)C[C@@H](C)[C@]12Oc1c(Cl)c(OC)cc(OC)c1C2=O [griseofulvin] |  |  | > 100 µg/mL |  | > 100 µg/mL | > 100 µg/mL | 3 µg/mL (≈ 8.5 µM) | 6 µg/mL (≈ 17 µM) | 100 µg/mL (≈ 283 µM) | 100 µg/mL (≈ 283 µM) | > 100 µg/mL | > 100 µg/mL | 3 µg/mL (≈ 8.5 µM) | > 100 µg/mL | 1.5 µg/mL (≈ 4.25 µM) | > 100 µg/mL | > 100 µg/mL | 25 µg/mL (≈ 70.9 µM) | > 100 µg/mL | 1.5 µg/mL (≈ 4.25 µM) | 
C[C@H]1O[C@H](O[C@H]2[C@H](O)[C@@H](O)[C@@H](O)[C@H](O)[C@@H]2O)[C@@H](N)C[C@@H]1NC(=N)C(=O)O [kasugamycin] |  |  | > 100 µg/mL |  | > 100 µg/mL | 25 µg/mL (≈ 65.9 µM) |  |  | > 100 µg/mL | > 100 µg/mL | > 100 µg/mL | > 100 µg/mL | > 100 µg/mL | > 100 µg/mL | > 100 µg/mL | > 100 µg/mL | > 100 µg/mL | > 100 µg/mL | > 100 µg/mL | > 100 µg/mL | MIC [17, 32]: > 100 µg/mL; MIC [18, 33]: > 100 µg/mL
C[C@@H]1[C@H](O)[C@@H](C)/C=C/C=C/CC/C=C/C=C/C=C/C=C/C(O[C@H]2O[C@H](C)[C@@H](O)[C@H](N)[C@@H]2O)CC2O[C@](O)(CC(O)C(O)CCC(O)CC(O)CC(O)CC(=O)O[C@H]1C)CC(O)C2C(=O)O (stereo partly drawn) [nystatin] | 12 µg/mL (≈ 13 µM) | 6 µg/mL (≈ 6.48 µM) |  | ~ 200 mg/kg | 6 µg/mL (≈ 6.48 µM) | 0.8 µg/mL (≈ 0.864 µM) |  |  |  |  |  |  |  |  |  |  |  |  |  |  | MIC [1]: 100 µg/mL (≈ 108 µM); MIC [3]: 3 µg/mL (≈ 3.24 µM); MIC [5]: 3 µg/mL (≈ 3.24 µM); MIC ([6]; Fusarium roseum): 6 µg/mL (≈ 6.48 µM); MIC [7]: 100 µg/mL (≈ 108 µM); MIC [8]: 25 µg/mL (≈ 27 µM); MIC [9]: 50 µg/mL (≈ 54 µM); MIC [12]: 100 µg/mL (≈ 108 µM); MIC [13]: 12 µg/mL (≈ 13 µM); MIC [15]: 12 µg/mL (≈ 13 µM); MIC [16]: 1.5 µg/mL (≈ 1.62 µM); MIC [17]: 3 µg/mL (≈ 3.24 µM); MIC [18]: 1.5 µg/mL (≈ 1.62 µM); MIC [19]: 1.5 µg/mL (≈ 1.62 µM); MIC [20]: 1.5 µg/mL (≈ 1.62 µM)
NC(=O)OCC(O)C(O)C(N)C(=O)NC(C(=O)O)C1OC(n2cc(CO)c(=O)[nH]c2=O)C(O)C1O (stereo not drawn) [polyoxin B] |  |  | > 100 µg/mL |  | > 100 µg/mL | > 100 µg/mL |  |  | > 100 µg/mL | > 100 µg/mL | > 100 µg/mL | > 100 µg/mL | > 100 µg/mL | > 100 µg/mL | > 100 µg/mL | > 100 µg/mL | > 100 µg/mL | > 100 µg/mL | > 100 µg/mL | > 100 µg/mL | MIC [17, 32]: > 100 µg/mL; MIC [18, 33]: > 100 µg/mL
